Data as given in patent publication US20160090578A1, “ENZYMES […] GLYCOSYLATION OF POLYPHENOLS” (priority 2013, published 2016).

Experiments:
[1] = system: MgtC; assay type: cell-based, Bacillus sp. BCG+1; details: E. coli DH5α pDrive::mgtC, whole cell catalysis
[2] = system: GtfC; test: Biotransformation assays with E. coli expressing recombinant GtfC, quantified by TLC; assay type: cell-based, Elbe river sediment metagenome; details: for Conversion (%): whole-cell biotransformation, 50 mL, 50 mM sodium phosphate buffer pH 7.0, 1% (w/v) glucose, 200 μM flavonoid, 30° C., triplicate; for Conversion in GtfC biotransformation (in words): whole-cell biotransformation with E. coli expressing GtfC
Experimental: The supernatant was applied in TLC analysis.
(§1) The supernatant transferred into HPLC flat bottom vials was used for TLC analysis. Samples of 20 μL were applied on 20×10 cm^2 (HP)TLC silica 60 F254 plates (Merck KGaA, Darmstadt, Germany) versus 200 pmol of reference flavonoids. To avoid carryover of substances, i.e. prevent false positives, samples were spotted with double syringe rinsing in between by the ATS 4. The sampled TLC plates were developed in ethyl acetate/acetic acid/formic acid/water 100:11:11:27 (‘Universal Pflanzenlaufmittel’) (41). After separation the TLC plates were dried in an oven at 80° C. for five minutes. The absorbance of the separated bands was determined densitometrically depending on the absorbance maximum of the applied educt substances at 285 to 370 nm using the deuterium lamp in a TLC Scanner 3 (CAMAG, Muttenz, Switzerland). Subsequently, the substances on developed TLC plates were derivatized by dipping the plates in a methanolic solution of 1% (w/v) diphenyl boric acid β-aminoethyl ester (DPBA) (42) for one second using a Chromatogram Immersion Device (CAMAG, Muttenz, Switzerland) followed by drying the TLC plates in hot air with a fan. After two minutes the bands were visualized at 365 nm with a UV hand lamp and photographed. Alternatively, fluorescence of the bands was determined densitometrically by the TLC Scanner 3 depending on the absorbance maximum of the applied substances at 320 to 370 nm.
(§2) Samples of 20 μL were sprayed by an ATS 4 (CAMAG, Muttenz, Switzerland) on HPTLC silica 60 F254 plates (Merck KGaA, Darmstadt, Germany) versus different amounts of respective standard educt and product substances. TLC plates were developed, dried, derivatized and analyzed as stated above. Regression curves were calculated from the peak area of the applied reference substances to determine the amount of produced and residual flavonoids.

[3] = system: MgtB; test: Biocatalytic reactions with purified recombinant His-tagged MgtB and UDP-glucose, quantified by TLC; assay type: biochemical, Bacillus sp. HH1500; details: for Acceptor substrate modification by His10-MgtB (in words): 500 μM UDP-α-D-glucose as donor, 100 μM acceptor substrate; for Conversion (%): 1 mL, 37° C., 2 hours, triplicate, 500 μM UDP-glucose, 100 μM flavonoid, 5 μg/mL purified recombinant MgtB
Experimental: as §1, §2

[4] = system: MgtT; details: E. coli DH5α pDrive::mgtT, whole cell catalysis
Experimental: (§3) For the detection of flavonoid modifications in bacteria a biotransformation approach was used. Cultures were grown in LB medium with appropriate antibiotic overnight. Expression cultures were prepared as stated above for overproduction of enzymes. The cells were sedimented by centrifugation at 4,500 g and resuspended in 50 mM sodium phosphate buffer pH 7 supplemented with 1% (w/v) α-D-glucose. Biotransformations with a final concentration of 100 μM flavonoid inoculated from stock solutions of 100 mM in DMSO, i.e. 0.1%, were incubated in Erlenmeyer flasks at 30° C. and 175 rpm up to 24 hours. Samples of 4 mL were withdrawn and acidified with 100 μL H3PO4 aq for extraction in 2 mL ethyl acetate. They were shaken for 1 minute and phase separated by centrifugation at 2,000 g and 4° C. The supernatant was applied in TLC analysis. For quantification, samples of 100 μL were taken and dissolved 1/10 in ethyl acetate/acetic acid 3:1. These acidified ethyl acetate samples were centrifuged at 10,000 g. The supernatant was used for quantitative TLC analysis as stated below.

[5] = system: MgtW; details: E. coli DH5α pDrive::mgtW, whole cell catalysis
Experimental: as §3

SMILES | Reaction in biotransformation with MgtC [1] | Conversion (%) [2] [%] | Acceptor substrate modification by His10-MgtB (in words) [3] | Conversion (%) [3] [%] | other results
O=c1cc(-c2ccc(O)cc2)oc2cc(O)cc(O)c12 [apigenin] | shown | – | – | – | –
Oc1ccc(/C=C/c2cc(O)cc(O)c2)cc1 [t-Resveratrol] | – | 96 | – | – | –
O=c1c(O)c(-c2ccc(O)cc2)oc2cc(O)cc(O)c12 [Kaempferol] | – | ~100 | modified with high yields | ~100 | Conversion (%) ([3]; listed as kaempferol): approximately 100%
O=c1c(-c2ccc(O)cc2)coc2cc(O)cc(O)c12 [Genistein] | – | 68 | modified with high yields | 72 | –
O=C(/C=C/c1ccc(O)cc1)OC[C@H]1O[C@@H](Oc2c(-c3ccc(O)cc3)oc3cc(O)cc(O)c3c2=O)[C@H](O)[C@@H](O)[C@@H]1O [Tiliroside, kaempferol-3-O-6″-coumaroyl-glucoside] | – | – | modified with high yields | 83 | –
COc1cc([C@@H]2CC(=O)c3c(O)cc(O)cc3O2)ccc1O [homoeriodytiol] | shown | – | – | – | Reaction in biotransformation with MgtT [4]: shown; Reaction in biotransformation with MgtW [5]: shown
COc1cc(O)c(CC=C(C)C)c(O)c1C(=O)/C=C/c1ccc(O)cc1 [Xanthohumol] | – | 52 | – | – | –
Cc1cc(=O)oc2cc(O)ccc12 [4-Methylumbelliferone, 7-Hydroxy-4-methylcoumarin] | – | – | – | – | Reaction in biotransformation with MgtT [4]: shown
COc1ccc(-c2cc(=O)c3ccc(O)cc3o2)cc1 [Pratol] | – | – | – | – | Conversion in GtfC biotransformation (in words) [2]: converted weakly
Cc1cc(=O)c2c(O)cc(O)cc2o1 [noreugenin] | shown | – | – | – | –
O=C(CCc1ccc(O)cc1)c1c(O)cc(O)cc1O [phloretin] | shown | – | – | – | Reaction in biotransformation with MgtT [4]: shown; Reaction in biotransformation with MgtW [5]: shown
O=c1c(O)c(-c2ccc(O)c(O)c2)oc2cc(O)cc(O)c12 [Quercetin] | shown | ~100 | modified with high yields | ~100 | Conversion (%) ([3]; listed as quercetin): approximately 100%; Conversion in GtfC biotransformation (in words) [2]: transformed almost completely; Reaction in biotransformation with MgtW [5]: shown
O=c1cc(-c2ccc(O)c(O)c2)oc2cc(O)cc(O)c12 [Luteolin] | shown | 86 | modified with high yields | 82 | –
